According to US6627771B1, “Gamma amino butyric and acid analogs” (Pfizer Inc, priority 1998, dated 2003):
pIC50: −log10 of the molar value. Read-outs that look alike come from different tables or passages of the source.

Columns and labels:
[1] = test system: Vogel Conflict (punished drinking) in Wistar rats; assay: Vogel Conflict; type: in vivo, rat; details: summary of Table 1
Experimental: Vogel J. R., Beer B. and Cloody D. E., 1971, reported the procedure used. Basically, in each experiment, 100 näive adult male Wistar rats between 170-220 gm were randomly divided into 10 groups and deprived of water for 48 hours prior to testing. Food was available on Day 1 and removed 24 hours prior to test Day 2.
On Day 1, experimental subjects were placed into the test chambers and allowed to drink 5 mL of water unpunished from a drinking tube on a water bottle mounted on the outside of the chamber. Immediately following the unpunished drinking session, each rat was dosed (PO) with vehicle (1 mL/kg) and returned to their home cage. On test Day 2, rats are dosed with the appropriate treatment and placed in test cages, following a 2-hour absorption period each rat is placed into a test chamber and allowed to drink for 10 minutes. Adjacent to the drink-tube is an optical lickmeter with a photo beam detector that counts the number of licks during active drinking. Every 10 licks, the rats received 1-second shock (1 mA) through the drink tube. Thus, a conflict or anxiety-producing situation exists; rats are motivated to drink, however, they are inhibited by the shock. Anxiety is reflected by the low amounts of drinking. Standard anxiolytic drugs produce effects that allow rats to overcome this behavioral inhibition and drink despite the shock.

[2] = test system: sound-induced seizure responses in DBA/2 mice; assay: DBA2 Mouse Model of Anticonvulsant Efficacy; type: in vivo; details: for responders at 30 mg/kg: Mus musculus, po, read-out: DBA2 Mouse Model % Protected
Experimental: DBA2 Mouse Model of Anticonvulsant Efficacy
All procedures were carried out in compliance with the NIH Guide for the Care and Use of Laboratory Animals under a protocol approved by the Parke-Davis Animal Use Committee. Male DBA/2 mice, 3 to 4 weeks old were obtained from Jackson Laboratories Bar Harbour, Maine. Immediately before anticonvulsant testing, mice were placed upon a wire mesh, 4 inches square, suspended from a steel rod. The square was slowly inverted through 180° and mice observed for 30 seconds. Any mouse falling from the wire mesh was scored as ataxic (Coughenour L. L., McLean J. R., Parker R. B., “A new device for the rapid measurement of impaired motor finction in mice,” Pharm. Biochem. Behav., 1977;6(3):351-3). Mice were placed into an enclosed acrylic plastic chamber (21 cm height, approximately 30 cm diameter) with a high-frequency speaker (4 cm diameter) in the center of the top lid. An audio signal generator (Protek model B-810) was used to produce a continuous sinusoidal tone that was swept linearly in frequency between 8 kHz and 16 kHz once each 10 msec. The average sound pressure level (SPL) during stimulation was approximately 100 dB at the floor of the chamber. Mice were placed within the chamber and allowed to acclimatize for one minute. […] The incidence of all the seizure phases in the drug-treated and vehicle-treated mice was recorded, and the occurrence of tonic seizures were used for calculating anticonvulsant ED50 values by probit analysis (Litchfield J. T., Wilcoxon F. “A simplified method for evaluating dose-effect experiments,” J. Pharmacol., 1949;96:99-113). […] Groups of DBA/2 mice (n=5-10 per dose) were tested for sound-induced seizure responses 2 hours (previously determined time of peak effect) after given drug orally. […] Doses are expressed as weight of the active drug moiety.

[3] = test system: Carrageenin-Induced Hyperalgesia; assay: Pain Model (Carrageenin-Induced Hyperalgesia, rat paw pressure test); type: in vivo
Experimental: Carrageenin-Induced Hyperalgesia
Nociceptive pressure thresholds were measured in the rat paw pressure test using an analgesymeter (Randall-Sellitto Method: Randall L. O., Sellitto J. J., A method for measurement of analgesic activity on inflamed tissue. Arch. Int. Pharmacodyn., 4:409-419 (1957)). Male Sprague-Dawley rats (70-90 g) were trained on this apparatus before the test day. Pressure was gradually applied to the hind paw of each rat and nociceptive thresholds were determined as the pressure (g) required to elicit paw withdrawal. A cutoff point of 250 g was used to prevent any tissue damage to the paw. On the test day, two to three baseline measurements were taken before animals were administered 100 μL of 2% carrageenin by intraplantar injection into the right hind paw.

[4] = biological target: System L; assay: System L Binding

For `NC[C@H](CC(=O)O)C1CCCC1` [4R+, 4(R)-Amino-3-cyclopentyl-butyric Acid], the “antianxiety activity” value [1] was “especially active”, the “preventing convulsions” value ([2]; summary of Table 1) was “especially active” and the “Pain Model % MPE 1 Hour” value [3] was 36 % MPE. The “Pain Model % MPE 2 Hour” value [3] was 13.7 % MPE, the “antihyperalgesic activity” value ([3]; summary of Table 1) was “especially active” and the pIC50 [4] was 3.70.

In the case of `NC[C@@H](CC(=O)O)C1CCCC1` [5S−, (S)-4-Amino-3-cyclopentyl-butyric Acid], the “Pain Model % MPE 1 Hour” value [3] was 35 % MPE, the “Pain Model % MPE 2 Hour” value [3] was 24 % MPE and the pIC50 [4] was 3.32.

In the case of `NCC(CC(=O)O)C1CCC1` (centres unmarked) [Example 2, 4-Amino-3-cyclobutyl-butyric Acid], the responders at 30 mg/kg ([2]; 1 Hr @ 30 m/k) was 0%, the responders at 30 mg/kg ([2]; 2 Hr @ 30 m/k) was 40% and the “Pain Model % MPE 1 Hour” value [3] was −1.7 % MPE. The “Pain Model % MPE 2 Hour” value [3] was −12.1 % MPE and the pIC50 [4] was 2.82.

In the case of `NCC(CC(=O)O)C1CCCC1` (centres unmarked) [Example 3, 4-Amino-3-cyclopentyl-butyric Acid], the “Pain Model % MPE 1 Hour” value [3] was 73.8 % MPE, the “Pain Model % MPE 2 Hour” value [3] was 27.7 % MPE and the pIC50 [4] was 3.33.

For `NCC(CC(=O)O)CC1CC1` (centres unmarked) [Example 6], the “Pain Model % MPE 1 Hour” value [3] was 2.3 % MPE, the “Pain Model % MPE 2 Hour” value [3] was −3.4 % MPE and the pIC50 [4] was 2.73.

In the case of `NCC(CC(=O)O)CC1CCC1` (centres unmarked) [Example 7], the “Pain Model % MPE 1 Hour” value [3] was 1.5 % MPE, the “Pain Model % MPE 2 Hour” value [3] was −3.4 % MPE and the pIC50 [4] was 2.59.

`NCC(CC(=O)O)CC1CCCC1` (centres unmarked) [Example 8] was tested, and the pIC50 [4] was 2.33.

In the case of `NCC(CC(=O)O)CC1CCCCC1` (centres unmarked) [Example 9], the pIC50 [4] was 2.26.

In the case of `CC(CN)(CC(=O)O)C1CC1` (centres unmarked) [Example 10], the “Pain Model % MPE 1 Hour” value [3] was −4.3 % MPE, the “Pain Model % MPE 2 Hour” value [3] was −9.1 % MPE and the pIC50 [4] was 3.22.

In the case of `CC(CN)(CC(=O)O)C1CCC1` (centres unmarked) [Example 11], the “Pain Model % MPE 1 Hour” value [3] was 4.2 % MPE, the “Pain Model % MPE 2 Hour” value [3] was 3.1 % MPE and the pIC50 [4] was 4.13.

With `CC(CN)(CC(=O)O)CC1CCC1` (centres unmarked) [Example 12] the “Pain Model % MPE 1 Hour” value [3] was −4.2 % MPE, the “Pain Model % MPE 2 Hour” value [3] was −5.2 % MPE and the pIC50 [4] was 3.98.

In the case of `CC(CN)(CC(=O)O)CC1CCCC1` (centres unmarked) [Example 13], the pIC50 [4] was 2.98.
